Assay results as given in ChEMBL document CHEMBL1150185, “Antineoplastic agents, 195. Isolation and structure of aceratioside from Aceratium megalospermum” (1990).
≈ marks a conversion by molar mass, not a printed value.

Tested on: P388
Experiment: Cytostatic activity against mouse P388 cells
Format: functional
Conditions: read-out: ED50 (the source's name)

SMILES: O=C(O)[C@H]1CCc2c(cc(O)cc2O[C@@H]2O[C@H](CO)[C@@H](O)[C@H](O)[C@H]2O)C1 [ACERATIOSIDE]
- EC50: 9 µg/mL (≈ 24.3 µM)
